Columns and labels:
Assay type in all cases: in vivo
Phaedon cochleariae = Phaedon cochleariae spray test (PHAECO)
Protocol: Phaedon cochleariae—Spray Test
(§1) To produce a suitable active ingredient formulation, 1 part by weight of active ingredient is dissolved with the specified parts by weight of solvent and made up to the desired concentration with water containing an emulsifier concentration of 1000 ppm. To produce further test concentrations, the formulation is diluted with emulsifier-containing water.
After 7 days, the efficacy in % is determined. 100% means that all the beetle larvae have been killed; 0% means that no beetle larvae have been killed.
Phaedon cochleariae—Spray Test (PHAECO)
as §1, with “compound” for “ingredient”
Discs of Chinese cabbage leaves (Brassica pekinensis) are sprayed with an active compound formulation of the desired concentration and, after drying, populated with larvae of the mustard beetle (Phaedon cochleariae).
After the desired time, the efficacy in % is determined. 100% means that all the beetle larvae have been killed; 0% means that no beetle larvae have been killed.

Ctenocephalides felis = Ctenocephalides felis oral test; conditions: application rate 100 ppm in citrated cattle blood, after 2 days
Protocol: Ctenocephalides felis—Oral Test
Solvent: dimethyl sulfoxide
To produce a suitable active ingredient formulation, 10 mg of active ingredient are mixed with 0.5 ml of dimethyl sulfoxide. Dilution with citrated cattle blood gives the desired concentration.
About 20 unfed adult cat fleas (Ctenocephalides felis) are placed into a chamber which is closed at the top and bottom with gauze. A metal cylinder whose bottom end is closed with parafilm is placed onto the chamber. The cylinder contains the blood/active ingredient formulation, which can be imbibed by the fleas through the parafilm membrane.
After 2 days, the rate of extermination in % is determined. 100% means that all of the fleas have been killed; 0% means that none of the fleas have been killed.

[1] = test system: Anopheles funestus strain FUMOZ-R; assay: Anopheles test (ANPHFU surface treatment); conditions: application rate 100 mg/m^2, glazed tile, exposure 30 minutes, 24 hours after contact, read-out: efficacy (mortality)
Protocol: Anopheles Test (ANPHFU Surface Treatment)
(§2) Solvent: acetone+2000 ppm rapeseed oil methyl ester (RME)
(§3) To produce a suitable active compound formulation, the active compound is dissolved in the solvent (2 mg/ml). The active compound formulation is pipetted onto a glazed tile and, after it has dried off, adult mosquitoes of the species Anopheles funestus strain FUMOZ-R (Hunt et al., Med Vet Entomol. 2005 September; 19(3):271-5) are placed onto the treated tile. The exposure time is 30 minutes.
(§4) 24 hours after contact with the treated surface, mortality in % is determined. 100% means that all mosquitoes have been killed; 0% means that none of the mosquitoes have been killed.

[2] = test system: Aedes aegypti strain MONHEIM; assay: Aedes test (AEDSAE surface treatment); conditions: application rate 100 mg/m^2, glazed tile, exposure 30 minutes, 24 hours after contact, read-out: efficacy (mortality)
Protocol: Aedes Test (AEDSAE Surface Treatment)
as §2
as §3, with “Aedes aegypti” for “Anopheles funestus”, “MONHEIM” for “FUMOZ-R (Hunt et al., Med Vet Entomol. 2005 September; 19(3):271-5)”
as §4

[3] = test system: Anopheles gambiae strain RSPH (homozygot kdr); assay: Anopheles test (ANPHGB surface treatment); conditions: application rate 100 mg/m^2, glazed tile, exposure 30 minutes, 24 hours after contact, read-out: efficacy (mortality)
Protocol: Anopheles Test (ANPHGB Surface Treatment)
as §2
as §3, with “gambiae” for “funestus”, “RSPH (homozygot kdr)” for “FUMOZ-R (Hunt et al., Med Vet Entomol. 2005 September; 19(3):271-5)”
as §4

Myzus persicae [4] = assay: Myzus persicae spray test (MYZUPE); conditions: for efficacy: application rate 100 g/ha, spray, after 5 days
Protocol: Myzus persicae—Spray Test
as §1
Discs of Chinese cabbage leaves (Brassica pekinensis) infested by all stages of the green peach aphid (Myzus persicae) are sprayed with an active compound preparation of the desired concentration.
(§5) After 5 days, the efficacy in % is determined. 100% means that all the aphids have been killed; 0% means that no aphids have been killed.
Myzus Persicae—Spray Test (MYZUPE)
as §1, with “compound” for “ingredient”
Discs of Chinese cabbage leaves (Brassica pekinensis) infested with all stages of the green peach aphid (Myzus persicae) are sprayed with an active compound formulation of the desired concentration.
After the desired time, the efficacy in % is determined. 100% means that all the aphids have been killed; 0% means that no aphids have been killed.

Myzus persicae [5] = assay: Myzus persicae oral test; conditions: application rate 4 ppm, after 5 days
Protocol: To produce a suitable active compound preparation, 1 part by weight of active compound is dissolved with the specified amounts by weight of solvent and made up to the desired concentration with water.
50 ul of the active compound preparation are transferred to microtiter plates and made up to a final volume of 200 μl with 150 μl of IPL41 insect medium (33%+15% sugar). Then the plates are sealed with parafilm through which a mixed population of the green peach aphid (Myzus persicae), which is located in a second microtiter plate, can pierce and absorb the solution.
as §5

O=C(NC1CC1)c1cc(-c2cnn(-c3c(Cl)cc(C(F)(C(F)(F)F)C(F)(F)F)cc3Cl)c2)sc1Br [I-T1-1]
Emax at 100 g/ha (Phaedon cochleariae; Phaedon cochleariae, 168 h, PHAECO, 100 g ai/ha, 7 dat, read-out: % efficacy dat): 100% | pest or weed control at 100 g/ha (Phaedon cochleariae; Phaedon cochleariae, 168 h, application rate 100 g/ha, spray, after 7 days, read-out: efficacy): 100% | efficacy (rate of extermination) (Ctenocephalides felis): 100% | mortality at 100 mg/m2 [1]: 80 to 100% | mortality at 100 mg/m2 [2]: 80 to 100% | mortality at 100 mg/m2 [3]: 80 to 100% | Emax at 100 g/ha (Myzus persicae [4]; Myzus persicae, 120 h, MYZUPE, 100 g ai/ha, 5 dat, read-out: % efficacy dat): 100% | efficacy (Myzus persicae [4]): 100%

Cc1sc(-c2cnn(-c3c(Cl)cc(C(F)(C(F)(F)F)C(F)(F)F)cc3Cl)c2)cc1C(=O)NC1CC1 [I-T1-11]
efficacy (Phaedon cochleariae; application rate 100 g/ha, spray, after 7 days): 100% | efficacy (rate of extermination) (Ctenocephalides felis): 100% | efficacy (Myzus persicae [4]): 90% | efficacy (Myzus persicae [5]): 90%
